Measurements reported in US6020328A, “20-keto-11β-arylsteroids and their derivatives having agonist or antagonist hormonal properties” (Research Triangle Institute, priority 1998, dated 2000).
Values joined by “and” are separate entries in the source; they are usually repeats but may differ in a detail not shown here. Identical values can stand only once.

Columns and labels:
[1] = molecular target: progestin receptor (hPR); test: progestin receptor binding; settings: cytosol from human T-47D breast cells; [3H]-R5020; read-out: Receptor Binding Affinity hPR IC50
Description: However, the receptors were of human origin and a different radioligand was used. Thus, for progestin receptor binding the receptor was obtained in cytosol from human T-47D breast cells and [^3 H]-R5020 was used as the radioligand. Data are expressed as IC50 values, i.e., the concentration of compound that inhibits the radioligand binding by 50%.

[2] = test system: Human T-47D breast cells; test: T-47D cell proliferation, antagonist format (inhibition of 0.15 nM R5020-mediated proliferation); assay type: cell-based; settings: T47D; for EC50: inhibition of 0.15 nM R5020-mediated proliferation, N.D. not detected; for Emax: maximum % inhibition, 0.15 nM R5020, read-out: Cell Proliferation Antagonist maximum % Inhib.
Description: (§1) Human T-47D breast cells grown in nutrient media were incubated with the standard progestin R5020 alone or with R5020 plus test compound and then assessed by standard procedures for proliferation using incorporation of [^3 H]-thymidine as the measurement. […] The maximum % inhibition (a measure of the efficacy of the compounds) is also given. In the agonist format of this assay the compounds were tested at concentrations ranging from 0.01 to 10 nM and the maximum % stimulation at any dose is listed in Table 2. […] However, the presence of a very polar hydroxyl group in the 17α-position greatly diminishes antiprogestational activity and this holds even when the OH is separated from the 17-carbon atom by a methylene group.

[3] = test system: Human T-47D breast cells; test: T-47D cell proliferation, agonist format; assay type: cell-based; settings: T47D, 0.01 to 10 nM, maximum at any dose, read-out: Cell Proliferation Agonist maximum % Stim.
Description: as §1

[4] = test system: rabbits; test: McGinty test (agonist, test compound alone); assay type: in vivo, rabbit
Description: (§2) Progestational activity and antiprogestational activity were determined in rabbits by means of the McGinty test (test compound alone, procedure of McGinty et al., Endocrinology, 24:829-832 (1939)) or anti-McGinty test (test compound plus progesterone, procedure of Tamara et al., Jpn. J. Fertil. Steril. 24:48-81 (1979)). Results were scored according to McPhail (McPhail, J. Physiol., 83:146 (1934)).

[5] = test system: immature New Zealand white rabbits; test: anti-Clauberg assay for oral antiprogestational activity; assay type: in vivo, rabbit; settings: for ED50, anti-Clauberg assay: 5 days; for ED50, anti-Clauberg assay / effectiveness in inhibiting the endometrial response: with progesterone SC
Description: In this assay immature New Zealand white rabbits were primed with estrogen by treatment with estradiol for six days. They were then given progesterone subcutaneously (SC) and the test compound (orally) for 5 days. On the day following the treatment, the uteri were excised and examined histologically. The endometrial response was graded by the method of McPhail and the % inhibition was determined at each dose. Statistical analysis provides for an ED50 value.

[6] = test system: Ishikawa human endometrial adenocarcinoma cell line; test: anti-estrogenic activity in Ishikawa cells (block of estrogen-stimulated alkaline phosphates activity); assay type: cell-based
[7] = test system: immature female rabbits; test: anti-estrogenic activity in vivo (uterine weight); set-up: species or system rabbit
Description: Steril. 52: 1055-1060 (1989). […] The weight of uteri from untreated immature rabbits was increased from 246±87 (S.E.) mg with no estradiol to 1402±104 mg with estradiol alone. Concurrent treatment of rabbits with estradiol and 10 mg/day of 17α-acetoxy-11β-(4-(N-piperidino)phenyl)-19-norpregna-4,9-diene-3,20-dione reduced the uterine weights to 998±98 mg. Likewise 17α-acetoxy-11β-(4-N-pyrrolidino)phenyl)-19-norpregna-4,9-diene-3,20-dione at 10 mg/day reduced the uterine weight to 919±115 mg, and 17α-acetoxy-11β-(1-methyl-5-indolyl)-19-norpregna-4,9-diene-3,20-dione reduced uterine weight to 956±115 mg at the same dose.

[8] = test system: rabbits; test: anti-McGinty test (antagonist, test compound plus progesterone); assay type: in vivo, rabbit
Description: as §2

[9] = test system: immature male rats; test: antiglucocorticoid activity in vivo (thymus weight); set-up: species or system rat; settings: 6 μg dexamethasone alone per day, 7 days
Description: The ability of the compounds to block the effects of dexamethasone (6 μg per day for 7 days) on thymus weight of immature male rats was assessed.

[10] = test compound 10 mg/day oral + 5 μg estradiol per day

Row | SMILES | IC50 [1] [nM] | EC50 [2] [nM] | Emax [2] [%] | Emax [3] [%] | McPhail Index, McGinty Assay (Agonist) ([4]; dose 0.3 micrograms) | McPhail Index, McGinty Assay (Agonist) ([4]; dose 3 micrograms) | McPhail Index, McGinty Assay (Agonist) ([4]; dose 30 micrograms) | McPhail Index, McGinty Assay (Antagonist) ([8]; rabbit, in vivo) | other results
1 | CC(=O)O[C@]1(C(C)=O)CC[C@H]2[C@@H]3CCC4=CC(=O)CCC4=C3[C@@H](c3ccc(N4CCCCC4)cc3)C[C@@]21C [I 4-(N-piperidino) H O H --O--CO--CH3 H, 17α-Acetoxy-11β-[4-(N-piperidino)phenyl]-19-norpregna-4,9-diene-3,20-dione] | 1.2 | 0.2 | 117 | 0 | 0.1 +/- 0.1 | 0 +/- 0 | 0.2 +/- 0.1 |  | ED50, anti-Clauberg assay [5]: 0.9 mg/day; potency relative to mifepristone ([5]; more potent than mifepristone): about 5 fold; effectiveness in inhibiting the endometrial response [5]: 100%; anti-estrogenic activity in the Ishikawa assay ([6]; concentrations up to 10^-6 M): inactive; uterine weight [7, 10]: 998 ± 98 mg
2 | CC(=O)[C@@]1(O)CC[C@H]2[C@@H]3CCC4=CC(=O)CCC4=C3[C@@H](c3ccc(N(C)C)cc3)C[C@@]21C [I 4-Me2 N H O H --OH H] | 26 |  | 29 | 4 | 0 +/- 0 | 0 +/- 0 | 0 +/- 0 |  | McPhail Index, McGinty Assay (Antagonist) ([8]; dose 0.3 micrograms, plus progesterone): 2.8 +/- 0; McPhail Index, McGinty Assay (Antagonist) ([8]; dose 3 micrograms, plus progesterone): 2.4 +/- 0.4; McPhail Index, McGinty Assay (Antagonist) ([8]; dose 30 micrograms, plus progesterone): 2.1 +/- 0.4
3 | C[C@@H]1C[C@H]2[C@@H]3CCC4=CC(=O)C=C[C@]4(C)[C@@]3(F)[C@@H](O)C[C@]2(C)[C@@]1(O)C(=O)CO [dexamethasone, reference compound] |  |  |  |  |  |  |  |  | thymus weight [9]: 65 ± 8 mg
4 | CC(=O)O[C@]1(C(C)=O)CC[C@H]2[C@@H]3CCC4=CC(=O)CCC4=C3[C@@H](c3ccc(N4CCCC4)cc3)C[C@@]21C [I 4-(N-pyrrolidino) H O H --O--CO--CH3 H, 17α-Acetoxy-11β-[4-(N-pyrrolidino)phenyl]-19-norpregna-4,9-diene-3-20-dione] | 0.8 | 0.4 | 108 | 1 | 0 +/- 0 | 0 +/- 0 | 0 +/- 0 |  | anti-estrogenic activity in the Ishikawa cell assay ([6]; in words, concentration not given): inactive; uterine weight [7, 10]: 919 ± 115 mg
5 | COC[C@]1(C(C)=O)CC[C@H]2[C@@H]3CCC4=CC(=O)CCC4=C3[C@@H](c3ccc(N(C)C)cc3)C[C@@]21C [I 4-Me2 N H O H --CH2 OCH3 H, 11β-(4-(N,N-dimethylamino)phenyl)-17α-methoxymethyl-19-norpregna-4,9-diene-3,20-dione] | 3.2 | 0.3 | 106 | 12 | 1.3 +/- 0.5 | 1.8 +/- 0.6 | 1.3 +/- 0.8 | 3.2 +/- 0.1 and 1.7 +/- 0.8 and 1.7 +/- 0.3 | 
6 | CC(=O)O[C@]1(C(C)=O)CC[C@H]2[C@@H]3CCC4=CC(=O)CCC4=C3[C@@H](c3ccc(N(C)C)c(F)c3)C[C@@]21C [I 4-Me2 N 3-F O H --O--CO--CH3 H, 17α-Acetoxy-11β-(4-N,N-Dimethylamino-3-fluorophenyl)-19-norpregna4,9-diene-3,20-dione] | 2.2 | 0.7 | 101 | 30 | 2.5 +/- 0.2 | 3.0 +/- 0.3 | 3.6 +/- 0.1 | 3.6 +/- 0.1 and 3.3 +/- 0.3 and 2.8 +/- 0.3 | 
7 | CC(=O)OC[C@]1(C(C)=O)CC[C@H]2[C@@H]3CCC4=CC(=O)CCC4=C3[C@@H](c3ccc(N(C)C)cc3)C[C@@]21C [I 4-Me2 N H O H CH2 --O--CO--CH3 H] | 10.6 | 8.9 | 92 | 20 | 0 +/- 0 | 0.6 +/- 0.2 | 1.0 +/- 0.1 | 3.4 +/- 0.1 and 2.6 +/- 0.2 and 2.0 +/- 0.2 | 
8 | COc1ccc([C@H]2C[C@@]3(C)[C@@H](CC[C@]3(OC(C)=O)C(C)=O)[C@@H]3CCC4=CC(=O)CCC4=C32)cc1 [I 4-CH3 O H O H --O--CO--CH3 H, 17α-Acetoxy-11β-(4-methoxyphenyl)-19-norpregna-4,9-diene-3,20-dione] | 0.8 | 0.3 | 119 | 2 | 1.5 +/- 0.2 | 1.5 +/- 0.6 | 1.5 +/- 0.7 |  | progestational activity, McGinty test ([4]; in words): both agonist and antagonist properties; antiprogestational activity, anti-McGinty test ([8]; in words): both agonist and antagonist properties
9 | CC#C[C@]1(O)CC[C@H]2[C@@H]3CCC4=CC(=O)CCC4=C3[C@@H](c3ccc(N(C)C)cc3)C[C@@]21C [mifepristone, reference compound] |  |  |  |  |  |  |  |  | ED50, anti-Clauberg assay [5]: 4.14 mg/day; effectiveness in inhibiting the endometrial response [5]: 67%
10 | CC(=O)[C@@]1(CO)CC[C@H]2[C@@H]3CCC4=CC(=O)CCC4=C3[C@@H](c3ccc(N(C)C)cc3)C[C@@]21C [I 4-Me2 N H O H --CH2 --OH H, 11β-(4-(N,N-dimethylamino)phenyl)-17α-hydroxymethyl-19-norpregna-4,9-diene-3,20-dione] | 43.6 |  | 23 | 11 | 0 +/- 0 | 0 +/- 0 | 0 +/- 0 | 2.9 +/- 0.5 and 2.8 +/- 0.2 and 2.7 +/- 0.2 | 
11 | C[C@]12CC[C@@H]3c4ccc(O)cc4CC[C@H]3[C@@H]1CC[C@@H]2O [estradiol, reference compound] |  |  |  |  |  |  |  |  | uterine weight ([7]; estradiol alone, 5 μg per day): 1402 ± 104 mg
